Test results as given in the Kinase Knowledgebase extract (Sharma et al. 2016).

Key:
[1] = molecular target: EGFR (Human), P00533 [T790M/L858R]; details: nci-h1975
[2] = molecular target: EGFR (Human), P00533 [T790M/L858R]; details: nci-h1975; remark: listed apart in the source
[3] = molecular target: EGFR (Human), P00533 [T790M/L858R]

Sequence of EGFR (Human), P00533 [T790M/L858R] (P00533 whole entry T790M/L858R, looked up): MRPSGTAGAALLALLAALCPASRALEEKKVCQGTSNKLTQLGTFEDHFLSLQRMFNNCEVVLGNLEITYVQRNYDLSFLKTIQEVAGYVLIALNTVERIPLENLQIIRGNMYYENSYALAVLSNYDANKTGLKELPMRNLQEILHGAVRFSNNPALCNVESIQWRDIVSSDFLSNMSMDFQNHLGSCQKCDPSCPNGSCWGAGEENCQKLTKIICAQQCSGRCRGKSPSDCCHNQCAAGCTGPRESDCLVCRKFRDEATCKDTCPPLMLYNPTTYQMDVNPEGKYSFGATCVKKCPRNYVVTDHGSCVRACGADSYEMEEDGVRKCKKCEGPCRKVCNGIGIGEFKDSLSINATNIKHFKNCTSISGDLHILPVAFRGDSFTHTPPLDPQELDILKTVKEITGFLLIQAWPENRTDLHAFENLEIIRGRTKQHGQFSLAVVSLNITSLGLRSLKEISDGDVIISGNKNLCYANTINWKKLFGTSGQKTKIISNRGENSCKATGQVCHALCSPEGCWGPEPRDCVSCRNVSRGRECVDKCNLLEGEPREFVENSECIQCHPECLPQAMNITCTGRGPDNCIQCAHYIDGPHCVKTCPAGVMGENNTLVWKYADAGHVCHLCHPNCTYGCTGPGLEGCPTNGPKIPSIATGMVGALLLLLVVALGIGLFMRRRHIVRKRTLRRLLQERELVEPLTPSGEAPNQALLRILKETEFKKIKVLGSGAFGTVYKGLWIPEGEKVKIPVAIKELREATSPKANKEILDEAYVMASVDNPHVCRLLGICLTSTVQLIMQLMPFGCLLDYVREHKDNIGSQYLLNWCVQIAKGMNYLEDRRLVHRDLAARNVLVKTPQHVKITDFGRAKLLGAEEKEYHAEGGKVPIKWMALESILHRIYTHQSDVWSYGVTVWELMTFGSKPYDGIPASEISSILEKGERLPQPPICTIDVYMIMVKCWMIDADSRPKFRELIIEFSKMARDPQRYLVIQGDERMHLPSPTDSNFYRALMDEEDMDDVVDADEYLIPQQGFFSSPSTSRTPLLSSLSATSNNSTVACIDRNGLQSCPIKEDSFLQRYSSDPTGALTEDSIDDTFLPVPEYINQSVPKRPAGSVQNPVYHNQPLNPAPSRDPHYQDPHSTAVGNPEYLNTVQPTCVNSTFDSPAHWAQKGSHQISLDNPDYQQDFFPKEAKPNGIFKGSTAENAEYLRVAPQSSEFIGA

| EC50 [1] [nM] | EC50 [2] [nM] | Ki [3] [nM] | Structure (SMILES) |
| --- | --- | --- | --- |
| > 10000 | > 10000 | – | CC(C)n1nc(NC2CNC(=O)C2)c2cnc(Nc3ccnc(N4CCC(C)(O)CC4)n3)cc21 (stereo unspecified) |
| > 10000 | > 10000 | – | CC(C)n1nc(F)c2cnc(Nc3ccnc(-c4cnn(S(=O)(=O)C5CC5)c4)n3)cc21 |
| 608 | – | < 0.6 | CC(C)n1nc(N2CCC(C(N)=O)C2)c2cnc(Nc3ccnc(-c4cnn(S(=O)(=O)C5CC5)c4)n3)cc21 (stereo unspecified) |
| 696 | – | – | CCC(C)n1nc(N2CC[C@H](O)C2=O)c2cnc(Nc3ccnc(-c4cnn(S(=O)(=O)C5CC5)c4)n3)cc21 (stereo partly specified) |
| 732 | – | – | CC(C)n1nc(N2CC3(COC3)C2)c2cnc(Nc3ccnc(-c4cnn(CC5CC5)c4)n3)cc21 |
| 949 | – | – | CC(C)n1nc(N2CCS(=N)(=O)CC2)c2cnc(Nc3ccnc(-c4cnn(S(=O)(=O)C5CC5)c4)n3)cc21 |
| 163 | – | – | CC(C)n1nc(N2CCC(C(=O)N(C)C)C2)c2cnc(Nc3ccnc(-c4cnn(S(=O)(=O)C5CC5)c4)n3)cc21 (stereo unspecified) |
| 247 | – | – | CC(C)n1nc(N)c2cnc(Nc3ccnc(-c4cnn(S(=O)(=O)C5CC5)c4)n3)cc21 |
| 537 | – | – | CCC(C)n1nc(N2CC(C(C)O)C2)c2cnc(Nc3ccnc(-c4cnn(S(=O)(=O)C5CC5)c4)n3)cc21 (stereo unspecified) |
| 2860 | – | – | CC(C)n1nc(N2CCC(C)(C(N)=O)C2)c2cnc(Nc3ccnc(N4CCC(C)(O)CC4)n3)cc21 (stereo unspecified) |
| 738 | – | – | CC(C)n1nc(N2CCNC(=O)C2)c2cnc(Nc3ccnc(-c4cnn(S(=O)(=O)C5CC5)c4)n3)cc21 |
| 159 | – | – | CC(C)n1nc(N2CC(C(=O)N(C)C)C2)c2cnc(Nc3ccnc(-c4cnn(S(=O)(=O)C5CC5)c4)n3)cc21 |
| 938 | – | – | CC(C)n1nc(N2CC(C(N)=O)C2)c2cnc(Nc3ccnc(-c4cnn(S(=O)(=O)C5CC5)c4)n3)cc21 |
| 208 | – | – | CCC(C)n1nc(N2CCNC2=O)c2cnc(Nc3ccnc(N4CC[C@H](O)[C@H](F)C4)n3)cc21 (stereo partly specified) |
| 1260 | – | – | CC(C)n1nc(N2CCOCC2)c2cnc(Nc3ccnc(NCC(C)(C)S(C)(=O)=O)n3)cc21 |
| 1070 | – | – | CC(n1nc(N2CCNC2=O)c2cnc(Nc3ccnc(N4CCC(C)(O)CC4)n3)cc21)C(F)(F)F (stereo unspecified) |
| 216 | – | – | CCC(C)n1nc(N2CC3(COC3)C2)c2cnc(Nc3ccnc(-c4cnn(S(=O)(=O)C5CC5)c4)n3)cc21 (stereo unspecified) |
| 1470 | – | – | CCC(C)n1nc(N2CC[C@@H](O)C2)c2cnc(Nc3ccnc(N4CCC(CC#N)(OC)CC4)n3)cc21 (stereo partly specified) |
| 211 | 20.9 | 1 | COCC1CN(c2nn(C(C)C)c3cc(Nc4ccnc(-c5cnn(S(=O)(=O)C6CC6)c5)n4)ncc23)C1 |
| 3290 | – | – | CC(n1nc(N2CC3(COC3)C2)c2cnc(Nc3ccnc(N4CCC(C)(O)CC4)n3)cc21)C(F)(F)F (stereo unspecified) |
| > 10000 | > 10000 | – | CC1COCC(C)N1c1nn(C(C)C)c2cc(Nc3ccnc(-c4cnn(S(=O)(=O)C5CC5)c4)n3)ncc12 (stereo unspecified) |

| EC50 [1] [nM] | EC50 [2] [nM] | Ki [3] [nM] | Structure (SMILES) |
| --- | --- | --- | --- |
| 1600 | – | – | CCC(C)n1nc(N2CC(F)(F)C2)c2cnc(Nc3ccnc(N4CCC(C)(O)CC4)n3)cc21 (stereo unspecified) |
| 4620 | – | – | CC(Nc1nn(C(C)C)c2cc(Nc3ccnc(-c4cnn(S(=O)(=O)C5CC5)c4)n3)ncc12)C(N)=O (stereo unspecified) |
| 138 | – | – | CCC(C)n1nc(N2CCNC2=O)c2cnc(Nc3ccnc(-c4cnn(S(=O)(=O)C5CC5)c4)n3)cc21 (stereo unspecified) |
| 3700 | – | – | CC(C)c1nn(C(C)C)c2cc(Nc3ccnc(-c4cnn(S(=O)(=O)C5CC5)c4)n3)ncc12 |
| 158 | – | – | CC(C)n1nc(N2CCC2)c2cnc(Nc3ccnc(-c4cnn(S(=O)(=O)C5CC5)c4)n3)cc21 |
| 699 | – | – | CC(n1nc(N2CC3(COC3)C2)c2cnc(Nc3ccnc(-c4cnn(S(=O)(=O)C5CC5)c4)n3)cc21)C(F)(F)F (stereo unspecified) |
| 348 | – | – | CC(C)n1nc(N2CC(C(=O)N(C)C)C2)c2cnc(Nc3ccnc(N4CCC(O)C(C)(C)C4)n3)cc21 (stereo unspecified) |
| 371 | – | – | CC[C@H](C)n1nc(N2CC[C@H](O)C2)c2cnc(Nc3ccnc(N4CC[C@](C)(O)[C@H](F)C4)n3)cc21 |
| 1160 | – | – | CC(C)n1nc(N2CC(C(=O)N3CC[C@H](CO)C3)C2)c2cnc(Nc3ccnc(-c4cnn(S(=O)(=O)C5CC5)c4)n3)cc21 |
| > 10000 | > 10000 | – | CCC(C)n1nc(N2CC[C@H](O)C2=O)c2cnc(Nc3ccnc(N4CC[C@@H](O)[C@@H](F)C4)n3)cc21 (stereo partly specified) |
| 660 | – | – | CC(C)n1nc(N2CC(O)(CO)C2)c2cnc(Nc3ccnc(-c4cnn(S(=O)(=O)C5CC5)c4)n3)cc21 |
| 4620 | – | – | CC(C)n1nc(NC(C)(C)C)c2cnc(Nc3ccnc(-c4cnn(S(=O)(=O)C5CC5)c4)n3)cc21 |
| > 10000 | > 10000 | – | CC(C)n1nc(N2C[C@H](O)[C@@H](O)C2)c2cnc(Nc3ccnc(N4CCC(C)(O)CC4)n3)cc21 |
| 1010 | – | – | CCN1CCN(c2nn(C(C)C)c3cc(Nc4ccnc(-c5cnn(S(=O)(=O)C6CC6)c5)n4)ncc23)CC1 |
| 929 | – | – | CCN1CCN(c2nn(C(C)C)c3cc(Nc4ccnc(-c5cnn(S(=O)(=O)C6CC6)c5)n4)ncc23)C1=O |
| 380 | – | – | COC1CCN(c2nccc(Nc3cc4c(cn3)c(N3CCCC3)nn4C(C)C)n2)CC1 |
| 423 | – | – | CC(C)n1nc(N2CC(C(C)(C)O)C2)c2cnc(Nc3ccnc(-c4cnn(S(=O)(=O)C5CC5)c4)n3)cc21 |
| 193 | – | – | CC(C)n1nc(N2CC(C(=O)NCC(F)(F)F)C2)c2cnc(Nc3ccnc(-c4cnn(S(=O)(=O)C5CC5)c4)n3)cc21 |
| 1450 | – | – | COCCNC(=O)C1CN(c2nn(C(C)C)c3cc(Nc4ccnc(-c5cnn(S(=O)(=O)C6CC6)c5)n4)ncc23)C1 |
| 9980 | – | – | CCC(C)n1nc(N2CCS(=N)(=O)CC2)c2cnc(Nc3ccnc(N4CCC(C)(O)CC4)n3)cc21 (stereo unspecified) |
| 162 | – | – | CC(C)n1nc(N2CC[C@@H](CO)C2)c2cnc(Nc3ccnc(-c4cnn(S(=O)(=O)C5CC5)c4)n3)cc21 |

| EC50 [1] [nM] | EC50 [2] [nM] | Ki [3] [nM] | Structure (SMILES) |
| --- | --- | --- | --- |
| 397 | – | – | CCS(=O)(=O)n1cc(-c2nccc(Nc3cc4c(cn3)c(N3CC(CO)C3)nn4C(C)C)n2)cn1 |
| 334 | – | – | CC[C@@H](C)n1nc(N2CC(C(C)(C)O)C2)c2cnc(Nc3ccnc(N4CC[C@@H](O)[C@@H](F)C4)n3)cc21 |
| 2020 | – | – | CC(C)n1nc(N2CCS(=O)(=O)CC2)c2cnc(Nc3ccnc(-c4cnn(S(=O)(=O)C5CC5)c4)n3)cc21 |
| 149 | – | – | CC[C@@H](C)n1nc(N2CC3(COC3)C2)c2cnc(Nc3ccnc(N4CC[C@@H](O)[C@@H](F)C4)n3)cc21 |
| > 10000 | – | – | CC(C)n1nc(N2CC(N)CC2=O)c2cnc(Nc3ccnc(N4CCC(C)(O)CC4)n3)cc21 (stereo unspecified) |
| 237 | – | – | CC(C)n1nc(N2CCN=C2O)c2cnc(Nc3ccnc(-c4cnn(S(=O)(=O)C5CC5)c4)n3)cc21 |
| 901 | – | – | CC(n1nc(N2CC[C@@H](O)C2)c2cnc(Nc3ccnc(N4CCC(C)(O)CC4)n3)cc21)C(F)(F)F (stereo partly specified) |
| 263 | – | – | CCC(C)n1nc(N2CC[C@@H](O)C2)c2cnc(Nc3ccnc(N4CC[C@H](O)[C@H](F)C4)n3)cc21 (stereo partly specified) |
| 1460 | – | – | CC(C)n1nc(C2CCOC2)c2cnc(Nc3ccnc(-c4cnn(S(=O)(=O)C5CC5)c4)n3)cc21 (stereo unspecified) |
| > 10000 | – | – | CC(C)n1nc(NCC(F)(F)F)c2cnc(Nc3ccnc(-c4cnn(S(=O)(=O)C5CC5)c4)n3)cc21 |
| 740 | – | – | CC(C)n1nc(N2CCC3(CCNC3=O)C2)c2cnc(Nc3ccnc(-c4cnn(S(=O)(=O)C5CC5)c4)n3)cc21 (stereo unspecified) |
| 7170 | – | – | CCC(C)n1nc(N2CC[C@@H](C(N)=O)C2)c2cnc(Nc3ccnc(N4CCC(C)(O)CC4)n3)cc21 (stereo partly specified) |
| 121 | – | – | CC(C)n1nc(N2CC[C@@H](C#N)C2)c2cnc(Nc3ccnc(-c4cnn(S(=O)(=O)C5CC5)c4)n3)cc21 |
| 1060 | – | – | CC(C)n1nc(N2CCCC2)c2cnc(Nc3ccnc(-c4cnn(CC5CC5)c4)n3)cc21 |
| 1140 | – | – | CC(C)n1nc(N2CC3(CN(CC(F)(F)F)C3)C2)c2cnc(Nc3ccnc(-c4cnn(S(=O)(=O)C5CC5)c4)n3)cc21 |
| 283 | – | – | CC(C)n1nc(N2CC(C(=O)N3CC4CCC(C3)O4)C2)c2cnc(Nc3ccnc(-c4cnn(S(=O)(=O)C5CC5)c4)n3)cc21 |
| 9130 | – | – | CC[C@@H](C)n1nc(N2CC[C@@H](O)C2)c2cnc(Nc3ccnc(N4CCC5(CC4)CNC(=O)CO5)n3)cc21 |
| 240 | – | – | CC(C)n1nc(N2C[C@H](O)[C@@H](F)C2)c2cnc(Nc3ccnc(-c4cnn(S(=O)(=O)C5CC5)c4)n3)cc21 |
| 4050 | – | – | CC[C@@H](C)n1nc(N2CC[C@@H](O)C2)c2cnc(Nc3ccnc(N4CC[C@](C)(C(N)=O)C4)n3)cc21 |
| 1410 | – | – | CC(C)n1nc(N2CCOCC2)c2cnc(Nc3ccnc(N4CCC(O)C(C)(C)C4)n3)cc21 (stereo unspecified) |
| 201 | – | – | CC(C)n1nc(N2CCC(O)C2)c2cnc(Nc3ccnc(-c4cnn(S(=O)(=O)C5CC5)c4)n3)cc21 (stereo unspecified) |
